The source of these data is US10687529B2, “Nematotoxic composition of synergistic effect, use of a nematotoxic composition of synergistic effect” (EMPRESA BRASILEIRA DE PESQUISA AGROPECUARIA-EMBRAPA, priority 2012, dated 2020).

The test system of assay [1] is second-stage juveniles (J2) of M. incognita. The assay is described as follows: in vitro bioassay against second-stage juveniles (J2), 48 hours' exposure. It counts as in vivo. To be noted: for % paralyzed namatodes: 0.17 g/L (of each compound in the composition). How it is done:
FIG. 1—effect of the aqueous crude extracts of seeds of antagonistic plants on (J2) of M. incognita. The bars represent the percentage of live nematodes after 48 hours' exposure. Concentration of 1 mg of each extract for a final volume of 0.3 mL and 100 second-stage juveniles was used in the bioassay in triplicate, having distilled water as negative control. […]
(§1) FIG. 9—(A) Bioassay showing the effect of the commercial compounds on second-stage juveniles of M. incognita after 48 hours' exposure. 1—Control dH20, 2—DECE, 3—Glycose 10%, 4—Glycose 20%, 5—D-Pinitol (80 ug), 6—D-Pinitol (150 ug), 7—L-canavanina (80 ug), 8—L-canavanina (150 ug), 9—palmitic acid (80 ug), 10—palmitic acid (150 ug), 11—citric acid (80 ug), 12—citric acid (150 ug), 13—malic acid (80 ug), 14—malic acid (150 ug), 15—cis-aconitic acid (80 ug), 16—cis-anonitic acid (150 ug), 17—trans-anonitic acid (80 ug), 18—trans-aconitic acid (150 ug), 19—50 mM Tris/HCl pH 8, 20—50 mM acetic acid pH 5, 21—L-phenylamine (80 ug), 22—L-phenylamine (150 ug), 23—L-methionine (80 ug), 24—L-methionine (150 ug), 25—L-tryptophan (80 ug), 26—L-tryptophan (150 ug), 27—S-carboxymethylcistein (80 ug), 28—S-carboxymethylcisteine (150 ug), 29—Zantotoxine (80 ug), 30—Zantotoxine (150 ug), and 31—Glucose 20%+L-canavanine (15)ug). B—Evaluation of the effect of the different commercial compounds after the recovery assay using distilled water.
FIG. 10—(A) Bioassay showing the effect of the commercial compounds and their compositions on second-stage juveniles of M. incognita […] after 48 hours' exposure. C+ positive control (extract); C—: negative control (water); 2: palmitic acid; 3: S-carboxymethylcisteine; 4: trans-aconitic acid; 5: glucose. […] (B)—Evaluation of the effect of the different commercial compounds and their compositions after the recovery assay using distilled water. C+ positive control (extract); 2: palmitic acid; 3: s-carboxymethylcisteine; 4: trans-aconitic acid; 5: glucose.

Another assay deals with J2 of M. incognita. Put plainly: recovery assay using distilled water, certifying nematicidal or nematostatic effect. It counts as in vivo. How it is done:
as §1
FIG. 10—(A) Bioassay showing the effect of the commercial compounds and their compositions on second-stage juveniles of M. incognita […] after 48 hours' exposure. C+ positive control (extract); C—: negative control (water); 2: palmitic acid; 3: S-carboxymethylcisteine; 4: trans-aconitic acid; 5: glucose. Concentrations of the compositions: 3+4, 3+5=0.25 g/L (each active compound of the composition); 3+4+5=0.17 g/L each active compound of the composition. (B)—Evaluation of the effect of the different commercial compounds and their compositions after the recovery assay using distilled water. C+ positive control (extract); 2: palmitic acid; 3: s-carboxymethylcisteine; 4: trans-aconitic acid; 5: glucose. Concentrations of the compositions: 3+4, 3+5, 4+5=0.25 g/L (each active compound of the composition); 3+4+5=0.17 g/L each active compound of the composition.

For the compound `O=C(O)/C=C(/CC(=O)O)C(=O)O` [cis-aconitic acid], the J2 paralyzed entry in assay [1] (80 μg/300 μL) was “very low percentage”. Further, in the assay with J2 of M. incognita (150 μg/300 μL), the “nematicidal activity after the recovery assay” value was found to be 40%.
In assay [1] (80 μg/300 μL), `O=C(O)/C=C(\CC(=O)O)C(=O)O` [trans-aconitic acid] came in with a J2 paralyzed of 90%. Moreover, in assay [1], the “% paralyzed namatodes” value is 11.12%. Moreover, the “% of paralyzed nematodes” value in assay [1] (0.25 g/L (of each compound in the composition)) was determined as 27.08%. In addition, the “nematicidal activity after the recovery assay” value in the assay with J2 of M. incognita (150 μg/300 μL) turned out to be 98%.
Take `N[C@@H](Cc1c[nH]c2ccccc12)C(=O)O` [L-triptofane]: the J2 paralyzed entry in assay [1] (80 μg/300 μL) and in assay [1] (150 μg/300 μL) was “not capable of affecting the J2” in each case.
As to `CO[C@H]1[C@H](O)[C@@H](O)[C@@H](O)[C@H](O)[C@@H]1O` [D-pinitol], the J2 paralyzed entry in assay [1] (80 μg/300 μL) and in assay [1] (150 μg/300 μL) was “did not exhibit any toxic effect” in each case.
On to S-carboxymethylcisteine, for which the J2 paralyzed entry in assay [1] (80 μg/300 μL) and in assay [1] (150 μg/300 μL) was “about 90%” each time. Moreover, in assay [1], the “% paralyzed namatodes” value turned out to be 43.03%. Further, the “J2 recovering the mobility after the recovery test” value (shortened to “J2 recovering the mobility”) with J2 of M. incognita (80 μg/300 μL) and in the assay on J2 of M. incognita (150 μg/300 μL) was “most J2 recovering the movement” in each case.
`CCCCCCCCCCCCCCCC(=O)O` [palmitic acid] had a J2 paralyzed in assay [1] (80 μg/300 μL) of 98%. The “J2 recovering the mobility” value in the assay with J2 of M. incognita (80 μg/300 μL) and in the assay with J2 of M. incognita (150 μg/300 μL) was 90% throughout.
With `O=C(O)CC(O)(CC(=O)O)C(=O)O` [citric acid], in assay [1] (80 μg/300 μL), the J2 paralyzed entry was “very low percentage”. For the same compound, the “nematicidal activity after the recovery assay” value with J2 of M. incognita (150 μg/300 μL) came to 25%.
The matching figures for `O=C(O)CC(O)C(=O)O` (stereo not drawn) [malic acid]: “very low percentage” and 18%.
With `N=C(N)NOCC[C@H](N)C(=O)O` [L-canavanine], the J2 paralyzed entry in assay [1] (80 μg/300 μL) was “did not exhibit any nematotoxic activity”. In addition, the “juveniles remaining paralyzed after the recovery assay (nematicidal activity)” value with J2 of M. incognita (105 μg/300 μL) is on record as 25%.
For the compound `N[C@@H](Cc1ccccc1)C(=O)O` [L-phenylamnine], the J2 paralyzed result in assay [1] (80 μg/300 μL) and in assay [1] (150 μg/300 μL) was “not capable of affecting the J2” in each case.
For `COc1c2occc2cc2ccc(=O)oc12` [Xantotoxin], the J2 paralyzed in assay [1] (80 μg/300 μL) and in assay [1] (150 μg/300 μL) was 87% each time. Moreover, the “J2 recovering the mobility” value with J2 of M. incognita (80 μg/300 μL) and in the assay on J2 of M. incognita (150 μg/300 μL) was “did not recover the mobility” throughout.
